US20150293106A1, “DIAROMATIC AMINO ACID SUBSTRATE FOR CATHEPSIN DETECTION” (INDUSTRY-ACADEMIC COOPERATION FOUNDATION, YONSEI UNIVERSITY, priority 2012, published 2015)
Marks after values point to notes of the source that are not given here.

How the values were obtained:
thermolysin [1] = target: T1, thermolysin (Bacillus thermoproteolyticus, UniProt P00800); conditions: substrate 2.5 μM, protease 0.1 μM, two hours; hydrolysate amino acid-INH
Protocol: (§1) For the meaningful comparison of proteases, a hydrolysis reaction was performed under the optimum conditions as reported in other documents (regarding chymotrypsin, subtilisin, thermolysin and pepsin, refer to R. Beynon, J. S. Bond, Proteolytic Enzymes (Second Edition), Oxford University Press, 2001, pp. 295-316; regarding trypsin, proteinase K, carboxy peptidase A, collagenase, dispase, aspergillopepsin, papain, chymopapain, bromelain, cathepsin B, cathepsin L, and cathepsin S, refer to the catalog of Sigma-Aldrich Corporation).
(§2) Before the reaction, the mixtures of the reaction buffer solutions and proteases were previously incubated for 30 minutes in a water bath in which the temperature was adjusted to an analysis temperature. The hydrolysis reaction was initiated by adding a substrate dissolved in DMSO. The volume of the added substrate solution was controlled such that the final concentration of DMSO was lower than 1.5% (v/v).
The λex and λem were respectively adjusted to 284 nm and 410 nm with respect to papain, chymopapain, bromelain, cathepsins, aspergillopepsin and pepsin, and the λex and λem were respectively adjusted to 320 nm and 410 nm with respect to chymotrypsin, trypsin, subtilisin, proteinase K, thermolysin, carboxypeptidase A, collagenase and dispase. The reaction was performed under alkaline conditions.
The fluorescence measured at the end of the reaction was expressed as a final fluorescence.
The initial concentrations of each substrate and protease were respectively set to 2.5 μM and 0.1 μM. The hydrolysis reaction was performed for two hours. Reference numbers on an X-axis denoted the following: C1=papain; C2=chymopapain; C3=bromelain; S1=chymotrypsin; S2=trypsin; S3=subtilisin; S4=proteinase K; M1=thermolysin; M2=carboxypeptidase A; M3=dispase; M4=collagenase; A1=pepsin; and A2=aspergillopepsin. Each experiment was repeated at least three times.

dispase = target: T2, dispase (Paenibacillus polymyxa, UniProt P29148); assay: Protease-catalyzed hydrolysis, restored DBDY fluorescence (selectivity, FIGS. 11-19); format: biochemical, bacillus polymyxa; conditions: substrate 2.5 μM, protease 0.1 μM, two hours; hydrolysate amino acid-INH
T2 construct: dispase derived from bacillus polymyxa; purchased Sigma-Aldrich Chemical Co; host or cells: Bacillus polymyxa
Protocol: The reaction was performed under alkaline conditions.
The hydrolysis reaction was performed for two hours. […] Each experiment was repeated at least three times.

chymotrypsin = target: T3, chymotrypsin (Bos taurus, UniProt P00766); assay: Degree of hydrolysis by protease (Table 3); format: biochemical, bovine; conditions: after 2 hours, protease 10 μM, substrate 0.2 mM (G1-G3, L1-L3) or 0.1 mM (G4, L4), n.d. = no hydrolysis was detected, hydrolysate Gly-INH (G), Lys-INH (L1-L3)
T3 construct: chymotrypsin and trypsin derived from fetal bovine pancreas; purchased Sigma-Aldrich Chemical Co; host or cells: bovine pancreas
Protocol: (§3) A hydrolysate was measured using a HPLC system.

papain = target: T4, papain (Carica papaya, UniProt P00784); assay: Degree of hydrolysis by protease (Table 3); format: biochemical, papaya latex; conditions: after 2 hours; protease 10 μM; substrate 0.2 mM (G1-G3, L1-L3) or 0.1 mM (G4, L4); hydrolysate INH
T4 construct: papain and chymopapain derived from papaya latex; purchased Sigma-Aldrich Chemical Co; host or cells: papaya latex
T4 sequence (P00784 134-345): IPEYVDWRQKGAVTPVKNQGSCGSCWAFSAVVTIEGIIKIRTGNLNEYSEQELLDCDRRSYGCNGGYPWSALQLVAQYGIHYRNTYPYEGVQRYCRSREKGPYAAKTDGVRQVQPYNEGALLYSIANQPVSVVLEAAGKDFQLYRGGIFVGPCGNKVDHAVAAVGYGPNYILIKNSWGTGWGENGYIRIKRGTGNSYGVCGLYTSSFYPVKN
Protocol: as §3

pepsin = target: T5, pepsin (Sus scrofa, UniProt P00791); assay: Degree of hydrolysis by protease (Table 3); format: biochemical, pig; conditions: after 2 hours; protease 10 μM; substrate 0.2 mM (G1-G3, L1-L3) or 0.1 mM (G4, L4); n.d. = no hydrolysis was detected; hydrolysate INH
T5 construct: pepsin derived from pig gastric mucosa; purchased Sigma-Aldrich Chemical Co; host or cells: pig gastric mucosa
Protocol: as §3

thermolysin [2] = target: T1, thermolysin; conditions: after 2 hours; protease 10 μM; substrate 0.2 mM (G1-G3, L1-L3) or 0.1 mM (G4, L4); n.d. = no hydrolysis was detected; hydrolysate INH
Protocol: as §1, §2
A hydrolysate was measured using a HPLC system. In order to prepare a sample, a hydrolysis reaction was terminated by adding 2% (v/v) 1M HCl with respect to a serine protease, cysteine protease and metalloprotease, and adding 1M NaOH with respect to an aspartic protease. The separation was performed using the mixture of 10 mM-ammonium bicarbonate and acetonitrile as an eluent in C-18 column (particle size: 5 μm, 250 mm×4.6 mm, pore size: 80 Å, Phenomenex, USA). The elution was performed for 15 minutes, while the linear gradient of acetonitrile was increased from 0 to 60%. The flow rate and separation temperature of the eluent were maintained at 1 mL min^−1 and 35° C. The hydrolysate was detected at a wavelength of 254 nm.
Based on the report that a hydrophobic amino acid such as phenylalanine was preferred at a P2 position in most of the papain-like cysteine proteases, Boc-aromatic amino acid-Gly-INH and Boc-aromatic amino acid-Lys-INH were prepared in particular, and experimented as a substrate with respect to chymotrypsin, trypsin, papain, pepsin and thermolysis.

trypsin = target: T6, trypsin (Bos taurus, UniProt P00760); assay: Degree of hydrolysis by protease (Table 3); format: biochemical, bovine; conditions: after 2 hours; protease 10 μM; substrate 0.2 mM (G1-G3, L1-L3) or 0.1 mM (G4, L4); n.d. = no hydrolysis was detected; hydrolysate INH
T6 construct: chymotrypsin and trypsin derived from fetal bovine pancreas; purchased Sigma-Aldrich Chemical Co; host or cells: bovine pancreas
T6 sequence (P00760 24-246): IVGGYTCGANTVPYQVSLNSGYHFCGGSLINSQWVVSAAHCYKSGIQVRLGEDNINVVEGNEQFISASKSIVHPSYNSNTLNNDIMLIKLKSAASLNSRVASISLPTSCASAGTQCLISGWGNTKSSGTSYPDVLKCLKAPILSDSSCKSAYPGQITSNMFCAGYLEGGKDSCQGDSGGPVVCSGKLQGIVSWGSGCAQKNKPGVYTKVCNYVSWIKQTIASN
Protocol: as §3

T1 sequence (P00800 233-548): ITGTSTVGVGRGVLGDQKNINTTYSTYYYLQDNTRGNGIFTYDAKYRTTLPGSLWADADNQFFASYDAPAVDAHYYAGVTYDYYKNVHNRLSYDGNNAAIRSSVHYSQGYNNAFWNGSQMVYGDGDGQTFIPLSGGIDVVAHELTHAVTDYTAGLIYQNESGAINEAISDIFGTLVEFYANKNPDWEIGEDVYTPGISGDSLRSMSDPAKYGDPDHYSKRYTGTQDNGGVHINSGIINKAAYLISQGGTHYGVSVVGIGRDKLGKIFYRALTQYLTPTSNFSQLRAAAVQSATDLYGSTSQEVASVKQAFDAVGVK
T2 sequence (P29148 287-590): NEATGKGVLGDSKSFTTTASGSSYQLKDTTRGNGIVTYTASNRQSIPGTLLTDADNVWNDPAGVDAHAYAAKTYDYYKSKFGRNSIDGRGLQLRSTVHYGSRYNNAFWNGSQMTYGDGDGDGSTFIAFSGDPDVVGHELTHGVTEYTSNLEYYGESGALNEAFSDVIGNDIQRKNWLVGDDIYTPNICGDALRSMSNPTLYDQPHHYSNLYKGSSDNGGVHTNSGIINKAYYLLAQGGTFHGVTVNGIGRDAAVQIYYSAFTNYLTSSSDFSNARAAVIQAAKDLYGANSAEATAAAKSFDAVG
T5 sequence (P00791 60-385): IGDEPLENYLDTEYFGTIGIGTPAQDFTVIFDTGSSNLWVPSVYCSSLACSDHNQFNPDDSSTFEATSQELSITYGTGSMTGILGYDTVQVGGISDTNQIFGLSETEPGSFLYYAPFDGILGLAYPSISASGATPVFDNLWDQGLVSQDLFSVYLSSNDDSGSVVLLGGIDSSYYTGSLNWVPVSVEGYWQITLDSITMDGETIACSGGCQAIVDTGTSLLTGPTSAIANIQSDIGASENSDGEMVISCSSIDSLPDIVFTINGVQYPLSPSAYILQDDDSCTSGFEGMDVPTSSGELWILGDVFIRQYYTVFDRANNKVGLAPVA

CC[C@H](C)[C@H](NC(=O)C(Cc1ccc(O)c(-c2cc(CC(NC(=O)OC(C)(C)C)C(=O)N[C@H](C(=O)NNC(=O)c3ccncc3)[C@@H](C)CC)ccc2O)c1)NC(=O)OC(C)(C)C)C(=O)NNC(=O)c1ccncc1 (some centres unmarked) [DBDY-(Ile-INH)2] was tested, and the “sensitivity for thermolysin (hydrolysis, increased fluorescence)” value (thermolysin [1]) was “high sensitivity” and the “sensitivity for dispase (hydrolysis, increased fluorescence)” value (dispase) was “high sensitivity”.
With CC(C)C[C@H](NC(=O)C(Cc1ccc(O)c(-c2cc(CC(NC(=O)OC(C)(C)C)C(=O)N[C@@H](CC(C)C)C(=O)NNC(=O)c3ccncc3)ccc2O)c1)NC(=O)OC(C)(C)C)C(=O)NNC(=O)c1ccncc1 (some centres unmarked) [DBDY-(Leu-INH)2] the “sensitivity for thermolysin (hydrolysis, increased fluorescence)” value (thermolysin [1]) was “high sensitivity” and the “sensitivity for dispase (hydrolysis, increased fluorescence)” value (dispase) was “high sensitivity”.
CSCC[C@H](NC(=O)C(Cc1ccc(O)c(-c2cc(CC(NC(=O)OC(C)(C)C)C(=O)N[C@@H](CCSC)C(=O)NNC(=O)c3ccncc3)ccc2O)c1)NC(=O)OC(C)(C)C)C(=O)NNC(=O)c1ccncc1 (some centres unmarked) [DBDY-(Met-INH)2] was tested, and the “sensitivity for thermolysin (hydrolysis, increased fluorescence)” value (thermolysin [1]) was “high sensitivity” and the “sensitivity for dispase (hydrolysis, increased fluorescence)” value (dispase) was “high sensitivity”.
CC(C)(C)OC(=O)NC(Cc1ccc(O)c(-c2cc(CC(NC(=O)OC(C)(C)C)C(=O)N[C@@H](Cc3ccccc3)C(=O)NNC(=O)c3ccncc3)ccc2O)c1)C(=O)N[C@@H](Cc1ccccc1)C(=O)NNC(=O)c1ccncc1 (some centres unmarked) [DBDY-(Phe-INH)2] was tested, and the “sensitivity for thermolysin (hydrolysis, increased fluorescence)” value (thermolysin [1]) was “high sensitivity” and the “sensitivity for dispase (hydrolysis, increased fluorescence)” value (dispase) was “high sensitivity”.
For CC(C)[C@H](NC(=O)C(Cc1ccc(O)c(-c2cc(CC(NC(=O)OC(C)(C)C)C(=O)N[C@H](C(=O)NNC(=O)c3ccncc3)C(C)C)ccc2O)c1)NC(=O)OC(C)(C)C)C(=O)NNC(=O)c1ccncc1 (some centres unmarked) [DBDY-(Val-INH)2], the “sensitivity for thermolysin (hydrolysis, increased fluorescence)” value (thermolysin [1]) was “high sensitivity” and the “sensitivity for dispase (hydrolysis, increased fluorescence)” value (dispase) was “high sensitivity”.
With CC(C)(C)OC(=O)NC(Cc1ccc(O)cc1)C(=O)NCC(=O)NNC(=O)c1ccncc1 (stereo not drawn) [Substrate G1, Boc-Tyr- Gly-INH] the “degree of hydrolysis by Chymotrypsin” value (chymotrypsin) was 38.7 ± 2.9 ^d %, the “degree of hydrolysis by Papain” value (papain) was 62.8 ± 2.5% and the “degree of hydrolysis by Pepsin” value (pepsin) was 2.34 ± 0.45%. The “degree of hydrolysis by Thermolysin” value (thermolysin [2]) was 0.74 ± 0.02%.
For CC(C)(C)OC(=O)NC(Cc1ccccc1)C(=O)NCC(=O)NNC(=O)c1ccncc1 (stereo not drawn) [Substrate G2, Boc-Phe-Gly-INH], the “degree of hydrolysis by Chymotrypsin” value (chymotrypsin) was 28.6 ± 3.4 ^d %, the “degree of hydrolysis by Papain” value (papain) was 51.0 ± 3.5% and the “degree of hydrolysis by Pepsin” value (pepsin) was 1.61 ± 0.05%.
With CC(C)(C)OC(=O)NC(Cc1c[nH]c2ccccc12)C(=O)NCC(=O)NNC(=O)c1ccncc1 (stereo not drawn) [Substrate G3, Boc-Trp-Gly-INH] the “degree of hydrolysis by Chymotrypsin” value (chymotrypsin) was 17.3 ± 5.5 ^d %, the “degree of hydrolysis by Papain” value (papain) was 58.8 ± 6.2% and the “degree of hydrolysis by Pepsin” value (pepsin) was 3.21 ± 0.45%. The “degree of hydrolysis by Thermolysin” value (thermolysin [2]) was 0.74 ± 0.05%.
With CC(C)(C)OC(=O)NC(Cc1ccc(O)cc1)C(=O)NC(CCCCN)C(=O)NNC(=O)c1ccncc1 (stereo not drawn) [Substrate L1, Boc-Tyr-Lys-INH] the “degree of hydrolysis by Chymotrypsin” value (chymotrypsin) was 37.6 ± 5.2 ^e %, the “degree of hydrolysis by Trypsin” value (trypsin) was 69.6 ± 4.1% and the “degree of hydrolysis by Papain” value (papain) was 77.4 ± 5.8%. The “degree of hydrolysis by Pepsin” value (pepsin) was 0.74 ± 0.04%.
For CC(C)(C)OC(=O)NC(Cc1ccccc1)C(=O)NC(CCCCN)C(=O)NNC(=O)c1ccncc1 (stereo not drawn) [Substrate L2, Boc-Phe-Lys-INH], the “degree of hydrolysis by Chymotrypsin” value (chymotrypsin) was 53.2 ± 4.8 ^e %, the “degree of hydrolysis by Trypsin” value (trypsin) was 81.2 ± 4.9% and the “degree of hydrolysis by Papain” value (papain) was 89.1 ± 2.5%.
CC(C)(C)OC(=O)NC(Cc1c[nH]c2ccccc12)C(=O)NC(CCCCN)C(=O)NNC(=O)c1ccncc1 (stereo not drawn) [Substrate L3, Boc-Trp-Lys-INH] was tested, and the “degree of hydrolysis by Chymotrypsin” value (chymotrypsin) was 58.3 ± 1.2 ^e %, the “degree of hydrolysis by Trypsin” value (trypsin) was 85.1 ± 3.7% and the “degree of hydrolysis by Papain” value (papain) was 93.1 ± 8.9%. For the same compound, the “degree of hydrolysis by Thermolysin” value (thermolysin [2]) was 4.04 ± 0.08%.
